One experiment has as its system anesthetized beagle dogs. Put plainly: Myocardial blood flow and metabolism in fasted, closed-chest, anesthetized, electrically paced beagle dogs. It is filed as in vivo, dog. Conditions: 0.02 to 0.1 millimole/kg intravenously; in the presence and absence of isoprenaline. How it is done:
The ability of compounds of formula (I) to reduce oxygen demand and affect the relative utilization of carbohydrate and lipid metabolites in the heart may be assessed by measuring the effect of the compounds on myocardial blood flow and metabolism in fasted, closed-chest, anesthetized beagle dogs, with cardiac catheterization to enable simultaneous sampling of coronary sinus and arterial blood to be carried out. Coronary sinus blood flow is measured by the hydrogen gas clearance technique described by Aukland et al (Circulation Res. 1964, 14, 164). The heart is paced electrically at 155 beats/min. and recordings of hemodynamic parameters (blood pressure, left ventricular pressure and the first derivative of the latter) are made continuously. Control measurements of coronary blood flow are made and samples of blood taken at 40 min. intervals, both in an untreated animal and in the same animal dosed with an infusion of isoprenaline ([…].), which both stimulates cardiac contraction and increases plasma free fatty acid levels. The compound of formula (I) is then administered intravenously and measurements are made and samples taken again, 40 minutes and 90 minutes later. The blood samples from the artery and coronary sinus are analyzed for oxyhemoglobin, pyruvate and free fatty acid (FFA) content, differences between those of the arterial and coronary sinus blood, when multiplied by coronary blood flow, being a measure of oxygen consumption, pyruvate uptake and FFA uptake by the myocardium respectively.

The test system of experiment [1] is pyruvate dehydrogenase (PDH). Description: Proportion of active pyruvate dehydrogenase (PDHa/PDHt) in hearts of fat-fed rats after dosing. Format: in vivo. Particulars: rat heart. How it is done: (2) Rats fed on a high fat diet as in test (1) (a), are treated either with placebo or with the compound of formula (I), by subcutaneous or intravenous injection or by oral administration, and at various times after treatment the rat hearts are removed and homogenized, under conditions which minimize changes in the proportion of the pyruvate dehydrogenase enzyme which is present in the active form, as described by Whitehouse and Randle (Biochem. J. 1973, 134, 651). The total amount of the enzyme present (PDHt) and the amount which is present in the active form (PDHa) are assessed by a method similar to that described by Taylor et al (J. Biol. Chem. 1973, 248, 73). The fat-feeding process is found to depress the ratio PDHa/PDHt from a normal value of about 0.7 to a value in the range from 0.05 to 0.2.

`O=C(O)C(=O)c1ccc(O)cc1` [OH, H, OH, p-hydroxyphenylglyoxylic acid]: in the experiment with anesthetized beagle dogs, the myocardial blood flow result is “increased”, the myocardial oxygen consumption result is given as “decreased”, the myocardial pyruvate uptake entry is “increases” and the “period of increased myocardial pyruvate uptake after dosing” value is “at least 90 minutes”.

For `CSc1ccc(C(=O)C(=O)O)cc1` [SCH3, H, OH, p-(methylthio)phenylglyoxylic acid], the “PDHa/PDHt ratio at 1.5 hours” value in experiment [1] (dose 0.6 mM/kg subcutaneous, placebo ratio 0.12) was determined as 0.24; in experiment [1] (dose 1.2 mM/kg subcutaneous, placebo ratios 0.11-0.24), 0.47.

For the origin of these results see US4239779A, “Use of phenylglyoxylic acids and derivatives thereof in the treatment of ischemic heart disease” (Pfizer Inc., priority 1979, dated 1980).
